Reference: publication PMC10781878, “AMWEst, a new thermostable and detergent-tolerant esterase retrieved from the Albian aquifer” (Applied Microbiology and Biotechnology, 2024)

Tested on: T1, AMWEst
T1 construct: primer keeps native start codon (predicted signal peptide 1-22, LHA-EQ); ultrafiltered extracellular medium, not purified; about 50 kDa on SDS-PAGE, probably N-glycosylated
Experiment: spectrophotometric p-nitrophenol release at […] nm, Lineweaver-Burk plot
Format: biochemical, uncultured bacterium
Details: 50 mM Tris/HCl pH 8.5, 40 mM CaCl2, 60 °C, 20 min; substrate 0.1-10 mM; concentrated extracellular medium of recombinant yeast

Q: Which Km does the source give for `CCCCCCCCCCCC(=O)Oc1ccc([N+](=O)[O-])cc1` [pNP12, p-nitrophenyl laurate] here?
A: 1020 µM
